System: SW 982 tumor spheroid viability
Experiment: Anticancer human tumor SW 982 cell line growth inhibition;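 further: spheroids exposed to compound for 7 days before readout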
Settings: spheroids with HUVEC and MSC; for IC50: curve of first compound; for viability, T/C: stronger effect = lower value; active means viability on the fitted dose curve at most 10% of control; inactive means the rest
Outline: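 Complex tumor spheroids combined malignant cells with endothelial cells and mesenchymal stem cells. DNA-damaging drugs and DNA repair inhibitors were tested alone and in combination, at half-log dilutions down from clinical Cmax (top 10 microM if Cmax unknown), 0.25% DMSO final.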

COc1cc(C)[nH]c(=O)c1CN1CCc2c(Cl)cc(C(OC)C3COC3)c(Cl)c2C1=O (stereo not given) + CC[C@@]1(O)C(=O)OCc2c1cc1n(c2=O)Cc2cc3c(CN(C)C)c(O)ccc3nc2-1
< 0.0316 µM: IC50 (second compound 0.3 µM)
> 10 µM: IC50 (second compound 0.003 µM) | IC50 (second compound 0.00949 µM) | IC50 (second compound 0.03 µM) | IC50 (second compound 0.0949 µM)
inactive: viability, T/C (second compound 0.003 µM, first compound 0.0316 µM) 87.8% | viability, T/C (second compound 0.003 µM, first compound 0.1 µM) 81.4% | viability, T/C (second compound 0.003 µM, first compound 0.316 µM) 90.5% | viability, T/C (second compound 0.003 µM, first compound 1 µM) 89.8% | viability, T/C (second compound 0.003 µM, first compound 3.16 µM) 87.8% | viability, T/C (second compound 0.003 µM, first compound 10 µM) 90.4% | viability, T/C (second compound 0.00949 µM, first compound 0.0316 µM) 74.8% | viability, T/C (second compound 0.00949 µM, first compound 0.1 µM) 77.3% | viability, T/C (second compound 0.00949 µM, first compound 0.316 µM) 75.1% | viability, T/C (second compound 0.00949 µM, first compound 1 µM) 79.4% | viability, T/C (second compound 0.00949 µM, first compound 3.16 µM) 82.7% | viability, T/C (second compound 0.00949 µM, first compound 10 µM) 83% | viability, T/C (second compound 0.03 µM, first compound 0.0316 µM) 77.7% | viability, T/C (second compound 0.03 µM, first compound 0.1 µM) 66.8% | viability, T/C (second compound 0.03 µM, first compound 0.316 µM) 70.8% | viability, T/C (second compound 0.03 µM, first compound 1 µM) 75.8% | viability, T/C (second compound 0.03 µM, first compound 3.16 µM) 69% | viability, T/C (second compound 0.03 µM, first compound 10 µM) 72.5% | viability, T/C (second compound 0.0949 µM, first compound 0.0316 µM) 58.2% | viability, T/C (second compound 0.0949 µM, first compound 0.1 µM) 56% | viability, T/C (second compound 0.0949 µM, first compound 0.316 µM) 65% | viability, T/C (second compound 0.0949 µM, first compound 1 µM) 63% | viability, T/C (second compound 0.0949 µM, first compound 3.16 µM) 66% | viability, T/C (second compound 0.0949 µM, first compound 10 µM) 76.5% | viability, T/C (second compound 0.3 µM, first compound 0.0316 µM) 49.4% | viability, T/C (second compound 0.3 µM, first compound 0.1 µM) 47.2% | viability, T/C (second compound 0.3 µM, first compound 0.316 µM) 42.9% | viability, T/C (second compound 0.3 µM, first compound 1 µM) 41.2% | viability, T/C (second compound 0.3 µM, first compound 3.16 µM) 48.2% | viability, T/C (second compound 0.3 µM, first compound 10 µM) 52.4%

O=C(c1cc(Cc2n[nH]c(=O)c3ccccc23)ccc1F)N1CCN(C(=O)C2CC2)CC1 + COc1cc2c(cc1O)CCNC21CSC2c3c(OC(C)=O)c(C)c4c(c3C(COC1=O)N1C(O)C3Cc5cc(C)c(OC)c(O)c5C(C21)N3C)OCO4
16.3 µM: IC50 (second compound 94.9 pM)
active: viability, T/C (second compound 0.000949 µM, first compound 30 µM) 2.5% | viability, T/C (second compound 0.003 µM, first compound 0.0949 µM) 0.52% | viability, T/C (second compound 0.003 µM, first compound 0.3 µM) 0.45% | viability, T/C (second compound 0.003 µM, first compound 0.949 µM) 0.51% | viability, T/C (second compound 0.003 µM, first compound 3 µM) 0.63% | viability, T/C (second compound 0.003 µM, first compound 9.49 µM) 0.83% | viability, T/C (second compound 0.003 µM, first compound 30 µM) 1.26%
7.8 µM: IC50 (second compound 30 pM)
inactive: viability, T/C (second compound 30 pM, first compound 0.0949 µM) 96.8% | viability, T/C (second compound 30 pM, first compound 0.3 µM) 93.2% | viability, T/C (second compound 30 pM, first compound 0.949 µM) 97.8% | viability, T/C (second compound 30 pM, first compound 3 µM) 71.7% | viability, T/C (second compound 30 pM, first compound 9.49 µM) 47.4% | viability, T/C (second compound 30 pM, first compound 30 µM) 38.8% | viability, T/C (second compound 94.9 pM, first compound 0.0949 µM) 93.1% | viability, T/C (second compound 94.9 pM, first compound 0.3 µM) 91.4% | viability, T/C (second compound 94.9 pM, first compound 0.949 µM) 92.6% | viability, T/C (second compound 94.9 pM, first compound 3 µM) 76.2% | viability, T/C (second compound 94.9 pM, first compound 9.49 µM) 59.8% | viability, T/C (second compound 94.9 pM, first compound 30 µM) 39.9% | viability, T/C (second compound 0.0003 µM, first compound 0.0949 µM) 74.4% | viability, T/C (second compound 0.0003 µM, first compound 0.3 µM) 80.7% | viability, T/C (second compound 0.0003 µM, first compound 0.949 µM) 70.5% | viability, T/C (second compound 0.0003 µM, first compound 3 µM) 70.8% | viability, T/C (second compound 0.0003 µM, first compound 9.49 µM) 43.8% | viability, T/C (second compound 0.0003 µM, first compound 30 µM) 28.1% | viability, T/C (second compound 0.000949 µM, first compound 0.0949 µM) 32.8% | viability, T/C (second compound 0.000949 µM, first compound 0.3 µM) 27.3% | viability, T/C (second compound 0.000949 µM, first compound 0.949 µM) 26.8% | viability, T/C (second compound 0.000949 µM, first compound 3 µM) 18.3% | viability, T/C (second compound 0.000949 µM, first compound 9.49 µM) 11.1%
7.27 µM: IC50 (second compound 0.0003 µM)
< 0.0949 µM: IC50 (second compound 0.000949 µM) | IC50 (second compound 0.003 µM)

From PubChem BioAssay AID1845216 (Molecular Pharmacology Branch, DTP, NCI, 2023)
